Measurements: PMC8820820, “Feasibility and safety of targeting mitochondria for cancer therapy – preclinical characterization of gamitrinib, a first-in-class, mitochondriaL-targeted small molecule Hsp90 inhibitor” (Cancer Biology & Therapy, 2022)
Read-outs that look alike come from different tables or passages of the source.

Experiments:
[1] = design: species or system beagle dogs; settings: dog, in vivo
Procedure: Eighteen male and female (5–6 mo old) purebred beagle dogs (Cumberland, VA) were acclimated for 47 d (20°C to 26°C, relative humidity 30–70%, 10 or greater air changes/h, and a 12-h light/dark cycle) prior to study initiation. Animals were given water ad libitum and Certified Canine Diet #5007 (PMI Nutrition International Certified LabDiet®) for 4 to 5 h each day. At study initiation, animal body weights ranged from 8.6 to 11.5 kg for males and 6.0 to 9.4 kg for females. At least 1 week prior to initiation of dosing, animals were fasted overnight, anesthetized, and a catheter attached to a subcutaneous vascular access port was surgically implanted into a jugular vein. Animals were acclimated to infusion jackets prior to catheter implantation surgery. Animals were infused with sterile saline at a dose rate of 5 mL/h when the vascular access ports were accessed and when animals were connected to the infusion system (except when dosed with the test or vehicle control article). The patency of each catheter was checked as needed. Prednisolone tablets were administered orally at 2 mg/kg the night prior to dosing. Diphenhydramine (5 mg/kg; IM injection 0.1 mL/kg, 50 mg/mL) was administered prior to dosing and post the start of infusion (d 1 only). Male and female dogs received dose levels of Gamitrinib of 1.25, 3.33 and 6.25 mg/kg/dose formulated as indicated above during a 1 h infusion on d 1, 8, 11, 15, 18, 22, 25, 29, 32, and 36 at a volume of 2 mL/kg. The vehicle control was as above. […] Dosing was stopped, and 23 of 24 animals were administered additional diphenhydramine, 11 were administered Flunixin meglumine and buprenorphine, and 6 were administered acepromazine. Symptoms subsided in all animals after completion of these interventions. As a result of these observations, the polysorbate levels, which were increased from 0.025% (w/v) to 0.125% (w/v) to minimize precipitation, were returned to the original concentrations; 2 mg/kg prednisone was administered orally the night prior to dosing; and the diphenhydramine pretreatment dose was updated to 5 mg/kg 15 to 30 min prior to dosing. Detailed observations were conducted for each animal up to seven times during the predose phase, prior to dosing on d 1, 8, 15, 22, 29, and 36 of the dosing phase, and on d 1, 7, and 14 of the recovery phase. Blood samples (1 mL) were collected via the cephalic vein 5, 15, and 30 min and 1, 4, 8, and 24 h post the end of infusion on d 8 and 36 of the dosing phase. Formalin-fixed and paraffin-embedded tissue samples collected at the end of the study (d 39) were processed for histologic examination.

[2] = Stability in human plasma
Sprague-Dawley rats = assay: Toxicity in Sprague-Dawley rats; type: in vivo; settings: for reduction in mean body weights: male rats, fully recoverable, not adverse
Procedure: Ninety-six male and female Sprague-Dawley rats (6–7 weeks old) were received from Charles River Laboratories (Raleigh, NC) catheterized via a femoral vein prior to arrival. Animals were acclimated in individual stainless-steel cages with access to water and Certified Rodent Diet #2014 C (Envigo RMS) ad libitum for 6 d prior to study initiation. Environmental controls were set to maintain a temperature range of 20 to 26°C, a relative humidity range of 30 to 70%, eight or greater air changes/h, and a 12-h light/dark cycle. Animals were infused with sterile isotonic (0.9%) saline for a minimum of 4 d (0.20 mL/h for males or 0.15 mL/h for females) during the predose phase. At initiation of dosing, animals were 8 to 9 weeks old, and body weights ranged from 283 to 341 g for males and 188 to 238 g for females. Gamitrinib formulated as indicated above was administered by IV infusion on d 4, 8, 11, 15, 18, 22, 25, and 29 of the dosing phase at 1, 10, 25 mg/kg/dose and dose volume of 5 mL/kg. The vehicle control administered with the same schedule contained 2.5% DMSO, 0.125% polysorbate 80, 0.031% lecithin, 1.25% sucrose and 4.375% dextrose. Animals were checked twice daily throughout the duration of the study for mortality, abnormalities, and signs of pain or distress. Detailed observations were conducted for each animal up to two times during the predose phase and for each toxicity animal prior to dosing on d 1, 8, 15, 22, and 29 of the dosing phase and on d 1, 7, and 14 of the recovery phase. Blood samples were collected on d. 1, 4 and 29 of the dosing phase 5 min, 1 h and 24 h post-dose, maintained on chilled cryoracks and centrifuged within 1 h of collection. Tissue samples harvested from each animal were embedded in paraffin, sectioned, and slides were prepared and stained with hematoxylin and eosin.

tumor = settings: mice; cited from earlier work
hERG = hERG (Homo sapiens, UniProt Q12809)
Chain of hERG (Q12809 whole entry): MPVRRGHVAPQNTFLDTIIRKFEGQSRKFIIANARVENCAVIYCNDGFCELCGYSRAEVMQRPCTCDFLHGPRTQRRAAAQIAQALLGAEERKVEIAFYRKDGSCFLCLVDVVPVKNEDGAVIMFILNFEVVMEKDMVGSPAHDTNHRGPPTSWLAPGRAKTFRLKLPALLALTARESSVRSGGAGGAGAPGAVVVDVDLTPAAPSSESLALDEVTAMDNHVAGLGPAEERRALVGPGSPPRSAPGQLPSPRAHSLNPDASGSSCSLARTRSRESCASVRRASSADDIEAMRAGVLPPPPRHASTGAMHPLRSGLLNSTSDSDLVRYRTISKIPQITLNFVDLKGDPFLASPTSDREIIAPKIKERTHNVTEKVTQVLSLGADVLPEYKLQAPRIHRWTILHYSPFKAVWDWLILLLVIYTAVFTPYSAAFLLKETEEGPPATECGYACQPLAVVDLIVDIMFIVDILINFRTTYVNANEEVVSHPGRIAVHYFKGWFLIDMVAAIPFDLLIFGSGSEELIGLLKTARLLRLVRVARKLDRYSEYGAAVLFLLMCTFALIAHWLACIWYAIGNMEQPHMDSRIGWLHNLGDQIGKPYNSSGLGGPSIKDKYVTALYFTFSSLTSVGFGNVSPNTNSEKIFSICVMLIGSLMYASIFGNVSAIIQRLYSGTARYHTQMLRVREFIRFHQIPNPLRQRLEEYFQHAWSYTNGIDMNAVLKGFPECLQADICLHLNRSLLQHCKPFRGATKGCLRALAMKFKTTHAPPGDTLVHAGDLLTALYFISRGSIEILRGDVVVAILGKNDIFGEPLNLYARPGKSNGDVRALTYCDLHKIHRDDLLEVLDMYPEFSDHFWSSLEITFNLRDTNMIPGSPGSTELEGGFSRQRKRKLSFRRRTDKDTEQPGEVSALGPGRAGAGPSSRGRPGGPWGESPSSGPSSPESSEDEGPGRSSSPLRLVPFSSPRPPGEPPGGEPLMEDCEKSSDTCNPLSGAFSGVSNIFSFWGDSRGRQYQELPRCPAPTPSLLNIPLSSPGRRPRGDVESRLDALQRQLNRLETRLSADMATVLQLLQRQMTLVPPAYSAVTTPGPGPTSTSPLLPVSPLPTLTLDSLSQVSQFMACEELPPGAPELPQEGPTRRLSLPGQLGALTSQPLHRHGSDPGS
Procedure: Caco-2 and HEK293 cells were obtained from the American Type Culture Collection (ATCC, Manassas, VA) and grown in culture according to the supplier’s specifications. In some experiments, HEK293 cells were stably transfected with hERG cDNA, and polyclonal cultures were maintained in the presence of 250 µg/ml geneticin (G418).
Patch clamp recording. […] For electrophysiology recording, a micropipette was pulled from borosilicate glass with the pipette tip resistance between 3 ~ 5 MΩ. For each experiment, polyclonal HEK293 cells stably transfected with hERG cDNA and maintained in 250 µg/ml Geneticin (G418) were plated on 35 mm dishes on the microscope stage and a commercial patch clamp amplifier was used for the whole cell recordings. The tail currents were evoked at 22°C once every 30 sec by a 3 sec-50 mV repolarizing pulse following a 2 sec +50 mV depolarizing pulse with a hold voltage of -80 mV. A 50 msec depolarized pulse to -50 mV at the beginning of the voltage protocol served as a baseline for calculating the amplitude of the peak tail current. […] The cells were kept in the test solution until the peak tail current was stable (<5% change) for ~5 sweeps or for a maximum of 6 min, whichever came first. Peak tail amplitudes were plotted as a function of the sweep number. […] The % inhibition of the test article was calculated from the following equation:

tumor cell = system: tumor cell; design: method as in PMID 19229106, PMID 29348817; settings: in culture; read-out: IC50 of tumor cell killing; cited from earlier work
KCNQ1/mink = KCNQ1/mink (Homo sapiens, UniProt P51787); assay: Ion channel screening; type: cell-based; settings: 10 µM
Chain of KCNQ1/mink (P51787 whole entry): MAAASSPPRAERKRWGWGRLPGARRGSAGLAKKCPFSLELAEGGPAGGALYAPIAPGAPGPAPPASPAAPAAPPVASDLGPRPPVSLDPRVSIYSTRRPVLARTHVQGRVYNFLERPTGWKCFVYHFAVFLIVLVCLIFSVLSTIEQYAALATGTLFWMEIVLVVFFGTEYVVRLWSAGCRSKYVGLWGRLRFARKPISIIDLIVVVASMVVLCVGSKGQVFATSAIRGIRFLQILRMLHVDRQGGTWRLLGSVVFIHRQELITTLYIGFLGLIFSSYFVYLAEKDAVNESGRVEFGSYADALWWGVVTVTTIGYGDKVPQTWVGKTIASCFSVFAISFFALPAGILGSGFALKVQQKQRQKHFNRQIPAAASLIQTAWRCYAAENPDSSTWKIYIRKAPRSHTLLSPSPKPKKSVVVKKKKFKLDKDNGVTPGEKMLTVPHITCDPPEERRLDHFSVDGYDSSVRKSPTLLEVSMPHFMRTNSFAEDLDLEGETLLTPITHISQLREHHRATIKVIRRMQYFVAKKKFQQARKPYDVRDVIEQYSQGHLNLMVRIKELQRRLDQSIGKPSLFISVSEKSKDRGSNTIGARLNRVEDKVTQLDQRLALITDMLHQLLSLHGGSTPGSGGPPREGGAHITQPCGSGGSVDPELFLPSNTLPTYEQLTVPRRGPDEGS
Text: Ion channel screening. […] The parameters measured were the maximum inward current evoked on stepping to -20 mV from the 1st and 26th pulse. Human Kv4.3/KChIP2 currents were evoked from a holding potential of -80 mV by a series of four 500 msec pulses to 0 mV using a 1000 msec interval between pulses. The parameter measured was the amplitude of the outward current 50 msec after the onset of the 4th voltage step to 0 mV. […] Human Kv1.5 currents were evoked by a single pulse from a holding potential of -80 mV to a potential of 0 mV for 4 sec before returning to -80 mV. The parameters measured were the maximum amplitude of outward currents evoked at the beginning of the voltage pulse and at the end of the voltage step from -80 mV to 0 mV. Human KCNQ1/minK currents were evoked by a single pulse delivered from a holding potential of -80 mV to +60 mV for 4 sec before returning to -80 mV. The parameter measured was the maximum outward current evoked on stepping to +60 mV from the holding potential of -80 mV. hERG currents were evoked by a three-pulse protocol where voltage was first stepped to +40 mV for two sec from a holding potential of –80 mV to inactivate hERG channels. […] The parameter measured was the maximum inward current evoked upon stepping to -110 mV from the holding potential of -30 mV. […]

CYP2A6 = molecular target: T1, CYP2A6 (Homo sapiens, UniProt P11509); settings: microsomes
T1 sequence (P11509 1-494): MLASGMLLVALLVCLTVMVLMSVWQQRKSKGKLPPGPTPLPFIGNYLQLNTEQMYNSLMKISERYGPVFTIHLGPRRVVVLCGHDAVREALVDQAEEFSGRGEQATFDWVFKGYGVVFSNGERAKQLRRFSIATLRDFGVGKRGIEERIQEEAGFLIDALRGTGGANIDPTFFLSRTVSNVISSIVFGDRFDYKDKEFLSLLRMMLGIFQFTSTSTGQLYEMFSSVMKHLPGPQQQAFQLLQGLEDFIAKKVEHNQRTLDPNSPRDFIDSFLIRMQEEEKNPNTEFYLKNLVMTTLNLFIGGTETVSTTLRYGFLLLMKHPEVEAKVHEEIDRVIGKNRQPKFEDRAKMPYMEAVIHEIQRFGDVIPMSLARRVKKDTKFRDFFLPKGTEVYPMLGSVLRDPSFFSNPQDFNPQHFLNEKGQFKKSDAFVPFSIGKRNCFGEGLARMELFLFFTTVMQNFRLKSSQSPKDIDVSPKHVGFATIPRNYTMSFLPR
Procedure: CYP inhibition in liver microsomes. […] Samples were analyzed for metabolite formation by LC-MS/MS. The results were expressed using the peak area ratio of analyte to internal standard, based on the calibration curves.
Where Range=fitted uninhibited value, s=slope factor, x=inhibitor concentration, y=% control activity.

COC1C=CC=C(C)C(=O)NC2=CC(=O)C(NCCCCCC[P+](c3ccccc3)(c3ccccc3)c3ccccc3)=C(CC(C)CC(OC)C(O)C(C)C=C(C)C1OC(N)=O)C2=O.F[P-](F)(F)(F)(F)F (stereo not shown) [Gamitrinib]
AUC0–24 ([1]; 3.33 mg/kg): 1740 ± 713 ng·h/mL | Cmax ([1]; 3.33 mg/kg): 560 ± 404 ng/mL | AUC0–24 ([1]; 6.25 mg/kg): 3290 ± 1090 ng·h/mL | Cmax ([1]; 6.25 mg/kg): 1260 ± 556 ng/mL | average recovery [2]: 82.8 ± 3% | stability in human plasma [2]: 91.4% | reduction in mean body weights (Sprague-Dawley rats; 10 mg/kg/dose): −5.5% | reduction in mean body weights (Sprague-Dawley rats; 25 mg/kg/dose): −5.7% | urinalysis and ophthalmic findings (Sprague-Dawley rats; rats): No effects on urinalysis or ophthalmic changes | serum urea nitrogen (UN) and creatinine concentrations (Sprague-Dawley rats; rats, 25 mg/kg/dose): Minimally to mildly higher | kidney microscopic findings (Sprague-Dawley rats; rats, 25 mg/kg/dose, persisted to end of recovery): tubular degeneration/regeneration | non-observed adverse effect level (NOAEL) (Sprague-Dawley rats; rats, IV twice weekly for 29 d): 1 mg/kg/dose | severely toxic dose in 10% of the animals (STD 10) (Sprague-Dawley rats; rats, IV twice weekly for 29 d): 10 mg/kg/dose | alterations in clinical chemistry parameters (Sprague-Dawley rats; rats, highest dose level tested): mildly to moderately higher neutrophil, and platelet (Plts) counts, minimally prolonged partial thromboplastin time (PT), lower albumin, higher globulin, and alkaline phosphatase concentrations | Gamitrinib-related clinical observations (Sprague-Dawley rats; rats, ≥10 mg/kg/dose): inguinal swelling, piloerection, hypoactivity, and sensitivity to touch at the infusion site | microscopic findings at infusion site (Sprague-Dawley rats; rats, ≥10 mg/kg/dose, both sexes, persisted through recovery): mixed cell inflammation at the catheter/infusion site | Gamitrinib-related mortality (Sprague-Dawley rats; toxicity animals, 10 mg/kg/dose): one male | Gamitrinib-related mortality (Sprague-Dawley rats; toxicity animals, 25 mg/kg/dose, severe inflammation and marked hemorrhage at infusion site): two males, one female | Gamitrinib-related mortality (Sprague-Dawley rats; toxicokinetic animals, 10 mg/kg/dose): two toxicokinetic females | Gamitrinib-related mortality (Sprague-Dawley rats; toxicokinetic animals, 25 mg/kg/dose): one toxicokinetic female | therapeutically effective dose (tumor): 10 mg/kg | IC50 (hERG): 3.5 µM | inhibition of hERG currents (hERG; 0.5 µM): −0.68 ± 3.95% | inhibition of hERG currents (hERG; 5 µM): 65.95 ± 6.78% | hERG IC50 over IC50 of inhibition of tumor growth in NCI 60-cell line screen (hERG; ratio): up to 20 fold | IC50 (tumor cell): 1 to 4 µM | inhibition of KCNQ1/mink currents (KCNQ1/mink): 22.5 ± 1.1% | IC50 (CYP2A6): 24 µM
